Laboratory results: patent publication US20220395497A1, “Cancer Treatment Using Camptothecin Derivatives” (priority 2019, published 2022)

Test system: adults with recurrence of glioblastoma multiforme (GBM)
Assay: Phase 2 open-label study of IV AR-67 (7.5 mg/m2 once daily for 5 days, 21-day cycle) in recurrent GBM: tumor response (MRI, MacDonald criteria), PFS, disposition. Cohort 1 = not received or not recently failed (>90 days) bevacizumab; Cohort 2 = recently (<90 days) failed bevacizumab
Type: in vivo, human
Method: The primary objective in the rapid bevacizumab failure group (<90 days) was to determine the 2-month PFS.
This solution was reconstituted in dextrose 5% in water to a final concentration between 0.06-0.6 mg/mL Drug (7.5 mg/m2) was to be given until the onset of toxicity requiring discontinuation or tumor progression. Tumor response was assessed=14d after every second cycle and before every third cycle using MRI.

CC[C@@]1(O)C(=O)OCc2c1cc1n(c2=O)Cc2c-1nc1ccc(O)cc1c2[Si](C)(C)C(C)(C)C [AR-67, (205)-7-tert-butyldimethysilyl-10-hydroxycamptothecin]
Best Overall Response: Complete Response, patients (All Patients, N = 46): 0
Best Overall Response: Progressive Disease, patients (All Patients, N = 46): 31
Response at Study Completion or Discontinuation: Complete Response, patients (All Patients, N = 46): 0
Response at Study Completion or Discontinuation: Progressive Disease, patients (All Patients, N = 46): 39
Response at Study Completion or Discontinuation: Stable Disease, patients (All Patients, N = 46): 2
Withdrawal due to Adverse event, patients (%) (All Patients, N = 46): 2.2%
Withdrawal due to Death, patients (%) (All Patients, N = 46): 6.5%
Withdrawal due to Disease progression, patients (%) (All Patients, N = 46): 69.6%
Best Overall Response: Complete Response, patients (Cohort 1, N = 31): 0
Best Overall Response: Partial Response, patients (Cohort 1, N = 31): 3
Best Overall Response: Progressive Disease, patients (Cohort 1, N = 31): 20
Best Overall Response: Stable Disease, patients (Cohort 1, N = 31): 5
Response at Study Completion or Discontinuation: Complete Response, patients (Cohort 1, N = 31): 0
Response at Study Completion or Discontinuation: Partial Response, patients (Cohort 1, N = 31): 1
Response at Study Completion or Discontinuation: Progressive Disease, patients (Cohort 1, N = 31): 28
Response at Study Completion or Discontinuation: Stable Disease, patients (Cohort 1, N = 31): 0
Withdrawal due to Death, patients (%) (Cohort 1, N = 31): 6.5%
Withdrawal due to Disease progression, patients (%) (Cohort 1, N = 31): 77.4%
Best Overall Response: Complete Response, patients (Cohort 2, N = 13): 0
Best Overall Response: Partial Response, patients (Cohort 2, N = 13): 0
Best Overall Response: Progressive Disease, patients (Cohort 2, N = 13): 10
Response at Study Completion or Discontinuation: Complete Response, patients (Cohort 2, N = 13): 0
Response at Study Completion or Discontinuation: Partial Response, patients (Cohort 2, N = 13): 0
Response at Study Completion or Discontinuation: Progressive Disease, patients (Cohort 2, N = 13): 10
Response at Study Completion or Discontinuation: Stable Disease, patients (Cohort 2, N = 13): 2
Withdrawal due to Adverse event, patients (%) (Cohort 2, N = 13): 7.7%
Withdrawal due to Death, patients (%) (Cohort 2, N = 13): 7.7%
Withdrawal due to Disease progression, patients (%) (Cohort 2, N = 13): 53.8%
efficacy, reason for study termination (in vivo): lack of efficacy
outcome (rGBM patients who failed bevacizumab within 90 days of last dose): fared poorly
patients who surpassed the PFS6 endpoint (rGBM patients who had never taken bevacizumab, or had not failed bev treatment within 90 days of last dose): 20%
